# Measurements reported in the supplement of paper PMC10307832.
# Columns and labels:
# Assay in all cases: relative viability (nuclei count vs DMSO), 5 days (fraction); higher = more cells survive
# [1] = system: NCI-H358
# Procedure, shortened: (§1)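 Values are medians from duplicate plates. Each reflects relative viability, defined as the nuclei count of treated wells over that of vehicle wells. Lung cancer cell lines in 1536-well plates were pin-tool dosed one day after seeding with one drug alone or with a fixed anchor-drug dose plus five library-drug doses (not always all listed) in √10 steps, then fixed, stained and imaged at 4× after 5 days.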
# [2] = system: COR-L23
# Procedure, shortened: as §1
# [3] = system: NCI-H2342
# Procedure, shortened: as §1
# [4] = system: NCI-H1734
# Procedure, shortened: as §1
# [5] = system: SK-LU-1
# Procedure, shortened: as §1
# [6] = system: BEN
# Procedure, shortened: as §1
# [7] = system: NCI-H441
# Procedure, shortened: as §1
# [8] = system: NCI-H1437
# Procedure, shortened: as §1
# [9] = system: NCI-H1651
# Procedure, shortened: as §1
# [10] = system: HCC-366
# Procedure, shortened: as §1
# [11] = system: NCI-H460
# Procedure, shortened: as §1
# [12] = system: NCI-H1563
# Procedure, shortened: as §1
# [13] = system: NCI-H838
# Procedure, shortened: as §1
# [14] = system: LOU-NH91
# Procedure, shortened: as §1
# [15] = system: NCI-H1793
# Procedure, shortened: as §1
# [16] = system: NCI-H2085
# Procedure, shortened: as §1
# [17] = system: NCI-H1355
# Procedure, shortened: as §1
# [18] = system: NCI-H1650
# Procedure, shortened: as §1
# [19] = system: NCI-H2023
# Procedure, shortened: as §1
# [20] = system: NCI-H1975
# Procedure, shortened: as §1
# [21] = system: CAL-12T
# Procedure, shortened: as §1
# [22] = system: LU99A
# Procedure, shortened: as §1
smiles,measurement,setting,value
COc1nc(C)cnc1NS(=O)(=O)c1cccnc1-c1ccc(-c2nnco2)cc1 [Zibotentan] + COc1cc2c(Oc3ccc(NC(=O)C4(C(=O)Nc5ccc(F)cc5)CC4)cc3F)ccnc2cc1OCCCN1CCOCC1 [Foretinib] (partner 0.25 µM),relative viability,[1]; first compound 0.08 µM,0.809
same,relative viability,[1]; first compound 0.253 µM,0.485
same,relative viability,[1]; first compound 0.8 µM,0.595
same,relative viability,[1]; first compound 2.53 µM,0.57
same,relative viability,[2]; first compound 0.08 µM,1.21
same,relative viability,[2]; first compound 0.253 µM,0.926
same,relative viability,[2]; first compound 0.8 µM,0.989
same,relative viability,[2]; first compound 2.53 µM,0.894
same,relative viability,[3]; first compound 0.08 µM,1.08
same,relative viability,[3]; first compound 0.253 µM,0.954
same,relative viability,[3]; first compound 0.8 µM,1.03
same,relative viability,[3]; first compound 2.53 µM,1.13
same,relative viability,[4]; first compound 0.08 µM,0.875
same,relative viability,[4]; first compound 0.253 µM,0.773
same,relative viability,[4]; first compound 0.8 µM,0.883
same,relative viability,[4]; first compound 2.53 µM,0.812
same,relative viability,[5]; first compound 0.08 µM,0.842
same,relative viability,[5]; first compound 0.253 µM,0.873
same,relative viability,[5]; first compound 0.8 µM,0.855
same,relative viability,[5]; first compound 2.53 µM,0.827
same,relative viability,[6]; first compound 0.08 µM,0.739
same,relative viability,[6]; first compound 0.253 µM,0.475
same,relative viability,[6]; first compound 0.8 µM,0.819
same,relative viability,[6]; first compound 2.53 µM,0.639
same,relative viability,[7]; first compound 0.08 µM,1.11
same,relative viability,[7]; first compound 0.253 µM,0.745
same,relative viability,[7]; first compound 0.8 µM,1.03
same,relative viability,[7]; first compound 2.53 µM,1.04
same,relative viability,[8]; first compound 0.08 µM,1.27
same,relative viability,[8]; first compound 0.253 µM,1.18
same,relative viability,[8]; first compound 0.8 µM,1.26
same,relative viability,[8]; first compound 2.53 µM,1.26
same,relative viability,[9]; first compound 0.08 µM,0.815
same,relative viability,[9]; first compound 0.253 µM,0.569
same,relative viability,[9]; first compound 0.8 µM,0.488
same,relative viability,[9]; first compound 2.53 µM,0.99
same,relative viability,[10]; first compound 0.08 µM,0.977
same,relative viability,[10]; first compound 0.253 µM,0.903
same,relative viability,[10]; first compound 0.8 µM,0.964
same,relative viability,[10]; first compound 2.53 µM,0.976
same,relative viability,[11]; first compound 0.08 µM,1.09
same,relative viability,[11]; first compound 0.253 µM,0.827
same,relative viability,[11]; first compound 0.8 µM,0.986
same,relative viability,[11]; first compound 2.53 µM,1.05
same,relative viability,[12]; first compound 0.08 µM,0.985
same,relative viability,[12]; first compound 0.8 µM,1.02
same,relative viability,[12]; first compound 2.53 µM,0.979
same,relative viability,[13]; first compound 0.08 µM,0.992
same,relative viability,[13]; first compound 0.253 µM,0.934
same,relative viability,[13]; first compound 0.8 µM,1.06
same,relative viability,[13]; first compound 2.53 µM,1.08
same,relative viability,[14]; first compound 0.08 µM,0.903
same,relative viability,[14]; first compound 0.253 µM,0.841
same,relative viability,[14]; first compound 0.8 µM,0.969
same,relative viability,[14]; first compound 2.53 µM,0.888
same,relative viability,[15]; first compound 0.08 µM,0.993
same,relative viability,[15]; first compound 0.253 µM,0.721
same,relative viability,[15]; first compound 0.8 µM,0.546
same,relative viability,[15]; first compound 2.53 µM,0.808
same,relative viability,[16]; first compound 0.08 µM,0.97
same,relative viability,[16]; first compound 0.253 µM,1.05
same,relative viability,[16]; first compound 0.8 µM,0.928
same,relative viability,[16]; first compound 2.53 µM,1.18
same,relative viability,[17]; first compound 0.08 µM,0.988
same,relative viability,[17]; first compound 0.253 µM,1.02
same,relative viability,[17]; first compound 0.8 µM,0.955
same,relative viability,[17]; first compound 2.53 µM,0.927
same,relative viability,[18]; first compound 0.08 µM,1.04
same,relative viability,[18]; first compound 0.8 µM,1.29
same,relative viability,[18]; first compound 2.53 µM,1.28
same,relative viability,[19]; first compound 0.08 µM,0.942
same,relative viability,[19]; first compound 0.253 µM,0.668
same,relative viability,[19]; first compound 0.8 µM,0.932
same,relative viability,[19]; first compound 2.53 µM,0.978
same,relative viability,[20]; first compound 0.08 µM,0.98
same,relative viability,[20]; first compound 0.253 µM,0.849
same,relative viability,[20]; first compound 0.8 µM,0.824
same,relative viability,[20]; first compound 2.53 µM,0.856
same,relative viability,[21]; first compound 0.08 µM,1.21
same,relative viability,[21]; first compound 0.253 µM,0.923
same,relative viability,[21]; first compound 0.8 µM,1.13
same,relative viability,[21]; first compound 2.53 µM,1.12
same,relative viability,[22]; first compound 0.08 µM,0.953
same,relative viability,[22]; first compound 0.253 µM,0.8
same,relative viability,[22]; first compound 0.8 µM,0.888
same,relative viability,[22]; first compound 2.53 µM,0.918
COc1nc(C)cnc1NS(=O)(=O)c1cccnc1-c1ccc(-c2nnco2)cc1 [Zibotentan] + COc1cccc2cc(-c3nc([C@H]4CC[C@H](C(=O)O)CC4)n4ncnc(N)c34)[nH]c12 [OSI-027] (partner 0.5 µM),relative viability,[1]; first compound 0.08 µM,0.833
same,relative viability,[1]; first compound 0.253 µM,0.531
same,relative viability,[1]; first compound 0.8 µM,0.725
same,relative viability,[1]; first compound 2.53 µM,0.824
same,relative viability,[2]; first compound 0.08 µM,0.713
same,relative viability,[2]; first compound 0.253 µM,0.651
same,relative viability,[2]; first compound 0.8 µM,0.789
same,relative viability,[2]; first compound 2.53 µM,0.798
same,relative viability,[3]; first compound 0.08 µM,0.621
same,relative viability,[3]; first compound 0.253 µM,0.559
same,relative viability,[3]; first compound 0.8 µM,0.576
same,relative viability,[3]; first compound 2.53 µM,0.758
same,relative viability,[4]; first compound 0.08 µM,0.655
same,relative viability,[4]; first compound 0.253 µM,0.558
same,relative viability,[4]; first compound 0.8 µM,0.604
same,relative viability,[4]; first compound 2.53 µM,0.668
same,relative viability,[5]; first compound 0.08 µM,0.38
same,relative viability,[5]; first compound 0.253 µM,0.31
same,relative viability,[5]; first compound 0.8 µM,0.344
same,relative viability,[5]; first compound 2.53 µM,0.325
same,relative viability,[6]; first compound 0.08 µM,0.301
same,relative viability,[6]; first compound 0.253 µM,0.286
same,relative viability,[6]; first compound 0.8 µM,0.27
same,relative viability,[6]; first compound 2.53 µM,0.261
same,relative viability,[7]; first compound 0.08 µM,0.823
same,relative viability,[7]; first compound 0.253 µM,0.404
same,relative viability,[7]; first compound 0.8 µM,0.818
same,relative viability,[7]; first compound 2.53 µM,0.752
same,relative viability,[8]; first compound 0.08 µM,0.845
same,relative viability,[8]; first compound 0.253 µM,0.84
same,relative viability,[8]; first compound 0.8 µM,0.855
same,relative viability,[8]; first compound 2.53 µM,0.919
same,relative viability,[9]; first compound 0.08 µM,0.694
same,relative viability,[9]; first compound 0.253 µM,0.641
same,relative viability,[9]; first compound 0.8 µM,0.701
same,relative viability,[9]; first compound 2.53 µM,0.72
same,relative viability,[10]; first compound 0.08 µM,0.922
same,relative viability,[10]; first compound 0.253 µM,0.884
same,relative viability,[10]; first compound 0.8 µM,0.389
same,relative viability,[10]; first compound 2.53 µM,1.1
same,relative viability,[11]; first compound 0.08 µM,0.665
same,relative viability,[11]; first compound 0.253 µM,0.408
same,relative viability,[11]; first compound 0.8 µM,0.593
same,relative viability,[11]; first compound 2.53 µM,0.66
same,relative viability,[12]; first compound 0.08 µM,0.767
same,relative viability,[12]; first compound 0.8 µM,0.761
same,relative viability,[12]; first compound 2.53 µM,0.77
same,relative viability,[13]; first compound 0.08 µM,0.349
same,relative viability,[13]; first compound 0.253 µM,0.366
same,relative viability,[13]; first compound 0.8 µM,0.393
same,relative viability,[13]; first compound 2.53 µM,0.389
same,relative viability,[14]; first compound 0.08 µM,0.673
same,relative viability,[14]; first compound 0.253 µM,0.681
same,relative viability,[14]; first compound 0.8 µM,0.732
same,relative viability,[14]; first compound 2.53 µM,0.784
same,relative viability,[15]; first compound 0.08 µM,0.351
same,relative viability,[15]; first compound 0.253 µM,0.284
same,relative viability,[15]; first compound 0.8 µM,0.224
same,relative viability,[15]; first compound 2.53 µM,0.254
same,relative viability,[16]; first compound 0.08 µM,0.78
same,relative viability,[16]; first compound 0.253 µM,0.727
same,relative viability,[16]; first compound 0.8 µM,0.442
same,relative viability,[16]; first compound 2.53 µM,0.832
same,relative viability,[17]; first compound 0.08 µM,0.375
same,relative viability,[17]; first compound 0.253 µM,0.377
same,relative viability,[17]; first compound 0.8 µM,0.458
same,relative viability,[17]; first compound 2.53 µM,0.492
same,relative viability,[18]; first compound 0.08 µM,0.579
same,relative viability,[18]; first compound 0.8 µM,0.644
same,relative viability,[18]; first compound 2.53 µM,0.716
same,relative viability,[19]; first compound 0.08 µM,0.475
same,relative viability,[19]; first compound 0.253 µM,0.228
same,relative viability,[19]; first compound 0.8 µM,0.371
same,relative viability,[19]; first compound 2.53 µM,0.476
same,relative viability,[20]; first compound 0.08 µM,0.783
same,relative viability,[20]; first compound 0.253 µM,0.696
same,relative viability,[20]; first compound 0.8 µM,0.566
same,relative viability,[20]; first compound 2.53 µM,0.661
same,relative viability,[21]; first compound 0.08 µM,0.559
same,relative viability,[21]; first compound 0.253 µM,0.551
same,relative viability,[21]; first compound 0.8 µM,0.614
same,relative viability,[21]; first compound 2.53 µM,0.629
same,relative viability,[22]; first compound 0.08 µM,0.32
same,relative viability,[22]; first compound 0.253 µM,0.302
same,relative viability,[22]; first compound 0.8 µM,0.274
same,relative viability,[22]; first compound 2.53 µM,0.338
